For this assay, the system named is L1210 leukemia ip in BDF1 mice, survival T/C. The assay is described as follows: NCI In Vivo Anticancer Drug Screen. Data for tumor model L1210 Leukemia (intraperitoneal) in B6D2F1 (BDF1) mice. The settings on record: endpoint: mean survival time, higher = longer survival. The method, boiled down: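 Survival endpoint. Drug-treated group vs vehicle group, expressed as T divided by C. Tumor passaged by transplantation.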

[1] abbreviates: dose: 100.0 mg/kg/injection, schedule: Q01DX009 (ip), vehicle: saline.
[2] abbreviates: dose: 100.0 mg/kg/injection, schedule: Q04DX003 (ip), vehicle: saline.
[3] abbreviates: dose: 200.0 mg/kg/injection, schedule: Q01DX009 (ip), vehicle: saline.
[4] abbreviates: dose: 200.0 mg/kg/injection, schedule: Q04DX003 (ip), vehicle: saline.
The mark [5] stands for this setting: dose: 400.0 mg/kg/injection, schedule: Q04DX003 (ip), vehicle: saline.
Setting [6] is: dose: 100.0 mg/kg/injection, schedule: Q01DX001 (ip), vehicle: Klucel (hydroxypropylcellulose) (HPC).
[7] abbreviates: dose: 200.0 mg/kg/injection, schedule: Q01DX001 (ip), vehicle: Klucel (hydroxypropylcellulose) (HPC).
Where [8] appears, read: dose: 400.0 mg/kg/injection, schedule: Q01DX001 (ip), vehicle: Klucel (hydroxypropylcellulose) (HPC).
Setting [9] is: dose: 100.0 mg/kg/injection, schedule: Q01DX001 (ip), vehicle: saline.
Where [10] appears, read: dose: 100.0 mg/kg/injection, schedule: Q01DX009 (ip), vehicle: Klucel (hydroxypropylcellulose) (HPC).
Setting [11] is: dose: 100.0 mg/kg/injection, schedule: Q04DX003 (ip), vehicle: Klucel (hydroxypropylcellulose) (HPC).
Setting [12] is: dose: 200.0 mg/kg/injection, schedule: Q01DX009 (ip), vehicle: Klucel (hydroxypropylcellulose) (HPC).
Where [13] appears, read: dose: 200.0 mg/kg/injection, schedule: Q04DX003 (ip), vehicle: Klucel (hydroxypropylcellulose) (HPC).
Where [14] appears, read: dose: 400.0 mg/kg/injection, schedule: Q04DX003 (ip), vehicle: Klucel (hydroxypropylcellulose) (HPC).
Setting [15] is: dose: 400.0 mg/kg/injection, schedule: Q01DX009 (ip), vehicle: Klucel (hydroxypropylcellulose) (HPC).
[16] abbreviates: dose: 100.0 mg/kg/injection, schedule: Q01DX001 (ip), vehicle: saline with Tween-80.
Where [17] appears, read: dose: 200.0 mg/kg/injection, schedule: Q01DX001 (ip), vehicle: saline with Tween-80.
[18] abbreviates: dose: 400.0 mg/kg/injection, schedule: Q01DX001 (ip), vehicle: saline with Tween-80.

Where “and” joins values, the source holds several entries; their conditions need not be identical. Equal entries are not always repeated. Toxic doses and inconclusive results are not listed.

As for `Cc1cccc2c1N=C(C(F)(F)F)CC2=O`, the T/C was 100 % of control (dose: 75.0 mg/kg/injection, schedule: Q01DX001 (ip), vehicle: other); 96 % of control (dose: 150.0 mg/kg/injection, schedule: Q01DX001 (ip), vehicle: other); 97 % of control (dose: 300.0 mg/kg/injection, schedule: Q01DX001 (ip), vehicle: other).

With `COc1cc(N)c2nccc(N(C)C)c2c1`, the T/C by setting is: under setting [1], 99 % of control; under setting [2], 97 % of control; under setting [3], 107 % of control; under setting [4], 103 % of control; under setting [5], 101 % of control.

`COc1ccc(/C=C2/N=C(C)OC2=O)cc1`: the T/C under setting [6] was 92 % of control, the T/C under setting [7] was 98 % of control and the T/C under setting [8] was 102 % of control.

`Cc1cc(=O)[nH]c(N/N=C/c2ccccc2O)n1`: the T/C by setting is: (dose: 25.0 mg/kg/injection, schedule: Q01DX009 (ip), vehicle: Klucel (hydroxypropylcellulose) (HPC)) 93 % of control; (dose: 50.0 mg/kg/injection, schedule: Q01DX009 (ip), vehicle: Klucel (hydroxypropylcellulose) (HPC)) 94 % of control; under setting [9], 98 % of control; under setting [10], 93 % of control; under setting [11], 92 % of control; (dose: 125.0 mg/kg/injection, schedule: Q01DX Z (ip), vehicle: saline) 97 % of control. The T/C (dose: 200.0 mg/kg/injection, schedule: Q01DX001 (ip), vehicle: saline) was 96 % of control; the T/C under setting [12] is 95 % of control and 96 % of control; the T/C under setting [13] was 94 % of control; the T/C (dose: 250.0 mg/kg/injection, schedule: Q01DX Z (ip), vehicle: saline) is 91 % of control; the T/C (dose: 400.0 mg/kg/injection, schedule: Q01DX001 (ip), vehicle: saline) was 96 % of control; the T/C under setting [14] is 94 % of control. Further, the T/C is, setting by setting: (dose: 500.0 mg/kg/injection, schedule: Q01DX Z (ip), vehicle: saline) 91 % of control; (dose: 1000.0 mg/kg/injection, schedule: Q01DX Z (ip), vehicle: saline) 91 % of control.

As for `COc1ccc(/C=N/NC(=S)Nc2ccccc2)cc1OC`, the T/C under setting [10] is 94 % of control and 100 % of control; the T/C under setting [12] is 89 % of control; the T/C under setting [15] was 96 % of control and 86 % of control.

Take `O=C(Nc1ccc(Cl)c(Cl)c1)Oc1ccc(Cl)cc1C(=O)Nc1ccccc1`: the T/C was 100 % of control under setting [10], 100 % of control under setting [12] and 87 % of control under setting [15].

Regarding `O=C(Nc1ccc(Cl)cc1)Nc1cccc2ccccc12`, the T/C is, setting by setting: under setting [10], 91 % of control; under setting [11], 94 % of control; under setting [12], 89 % of control; under setting [13], 94 % of control; under setting [15], 97 % of control; under setting [14], 93 % of control.

For the compound `CC(C)CCCC(C)C1CCC2C3CC=C4CC(OC(=O)CCCC5CCCCC5)CCC4(C)C3CCC12C` (stereo not given), the T/C was 94 % of control under setting [11], 94 % of control under setting [13] and 94 % of control under setting [14].

Take `C=C(C)C(N)=O`: the T/C is 102 % of control under setting [1] and 94 % of control under setting [3].

In the case of `CC(C)(C)OC(=O)C1(C(=O)OC(C)(C)C)C2CCCCC21` (stereo not given), the T/C reads like this: under setting [6], 95 % of control; under setting [11], 101 % of control; under setting [7], 90 % of control; under setting [13], 101 % of control; under setting [8], 87 % of control; under setting [14], 96 % of control.

In the case of `CCN(CC)CCNC(Cc1ccccc1)c1cccc(OC)c1` (stereo not given), for the setting “dose: 100.0 mg/kg/injection, schedule: Q01DX001 (ip), vehicle: carboxymethylcellulose (CMC)”, the T/C is 96 % of control.

As for `Cc1c(/C=N/N(CCO)CCO)[nH]c(=O)[nH]c1=O`, the T/C is, setting by setting: under setting [16], 103 % of control; under setting [17], 103 % of control; under setting [18], 98 % of control.

Turning to `C[C@@H]1CCC[C@@H](NC(=O)N(CCCl)N=O)C1`, the T/C (dose: 6.7 mg/kg/injection, schedule: Q01DX001 (ip), vehicle: saline with Tween-80) was 108 % of control; the T/C (dose: 10.0 mg/kg/injection, schedule: Q01DX001 (ip), vehicle: saline with Tween-80) is 113 % of control; the T/C (dose: 15.0 mg/kg/injection, schedule: Q01DX001 (ip), vehicle: saline with Tween-80) is 124 % of control; the T/C (dose: 18.7 mg/kg/injection, schedule: Q01DX009 (ip), vehicle: Klucel (hydroxypropylcellulose) (HPC)) is 188 % of control; the T/C (dose: 34.0 mg/kg/injection, schedule: Q01DX001 (ip), vehicle: saline with Tween-80) was 166 % of control; the T/C (dose: 37.5 mg/kg/injection, schedule: Q01DX009 (ip), vehicle: Klucel (hydroxypropylcellulose) (HPC)) is 328 % of control. In addition, the T/C runs as follows: (dose: 50.0 mg/kg/injection, schedule: Q01DX001 (ip), vehicle: saline with Tween-80) 293 % of control; (dose: 75.0 mg/kg/injection, schedule: Q01DX001 (ip), vehicle: saline with Tween-80) 484 % of control; (dose: 75.0 mg/kg/injection, schedule: Q01DX009 (ip), vehicle: Klucel (hydroxypropylcellulose) (HPC)) 198 % of control; (dose: 112.0 mg/kg/injection, schedule: Q01DX001 (ip), vehicle: saline with Tween-80) 444 % of control; (dose: 150.0 mg/kg/injection, schedule: Q01DX009 (ip), vehicle: Klucel (hydroxypropylcellulose) (HPC)) 106 % of control; (dose: 168.0 mg/kg/injection, schedule: Q01DX001 (ip), vehicle: saline with Tween-80) 434 % of control.

On to `Nc1cc(Nc2ccc(CCO)cc2)nc(N)n1`, for which the T/C (dose: 200.0 mg/kg/injection, schedule: Q01DX Z (ip), vehicle: methylcellulose (MC)) was 86 % of control.

As for `Cc1cc(Oc2nc(Cl)nc(C(Cl)(Cl)Cl)c2Cl)cc(C)c1N(C)C` (tested in a mixture with another compound), the T/C is, setting by setting: under setting [11], 91 % of control; under setting [13], 105 % of control.

`CCCCCSC`: the T/C was 93 % of control under setting [1]; 102 % of control under setting [2]; 95 % of control under setting [3]; 105 % of control under setting [4]; 88 % of control (dose: 400.0 mg/kg/injection, schedule: Q01DX009 (ip), vehicle: saline); 100 % of control under setting [5].

As for `Cc1cccc(NC(=O)CCc2ccc(N3C(N)=NC(N)=NC3(C)C)cc2)c1`, the T/C runs as follows: (dose: 3.13 mg/kg/injection, schedule: Q01DX009 (ip), vehicle: saline) 102 % of control; (dose: 6.25 mg/kg/injection, schedule: Q01DX009 (ip), vehicle: saline) 94 % of control; (dose: 12.5 mg/kg/injection, schedule: Q01DX009 (ip), vehicle: saline) 97 % of control; (dose: 25.0 mg/kg/injection, schedule: Q01DX009 (ip), vehicle: saline) 96 % of control; (dose: 50.0 mg/kg/injection, schedule: Q01DX009 (ip), vehicle: saline) 103 % of control.

Consider `CCC(C#N)c1ccccc1` (stereo not given), for which the T/C was 103 % of control under setting [10]; 110 % of control under setting [11]; 92 % of control under setting [12]; 119 % of control under setting [13]; 103 % of control under setting [15]; 96 % of control under setting [14].

As to `OC(C#CC(O)c1ccccc1)c1ccccc1` (stereo not given), the T/C reads like this: under setting [1], 86 % of control; (dose: 100.0 mg/kg/injection, schedule: Q04DX003 (ip), vehicle: saline with Tween-80) 97 % of control; under setting [3], 108 % of control; (dose: 200.0 mg/kg/injection, schedule: Q04DX003 (ip), vehicle: saline with Tween-80) 94 % of control; (dose: 400.0 mg/kg/injection, schedule: Q04DX003 (ip), vehicle: saline with Tween-80) 87 % of control.

For `Cc1ccc2c(c1)-c1[nH]c3ccccc3c1CS2`, the T/C (dose: 100.0 mg/kg/injection, schedule: Q04DX003 (ip), vehicle: acetone) is 105 % of control and the T/C (dose: 200.0 mg/kg/injection, schedule: Q04DX003 (ip), vehicle: acetone) is 110 % of control.

In the case of `O=C1c2ccccc2C(=O)N1CN1CCOCC1`, the T/C by setting is: under setting [16], 105 % of control; under setting [17], 94 % of control; under setting [18], 98 % of control.

Turning to `Cc1cc(C)c(S(=O)(=O)O)c(Cc2ccc3ccccc3c2)c1`, the T/C under setting [9] is 94 % of control.
